melting point [°C] | Compound
190 to 192 | COc1c(N2CCC(O)C(CC(C)C)C2)c(F)cc2c(=O)c(C(=O)O)cn(C3CC3)c12 (centres undefined)
50 to 50.5 | O=[N+]([O-])c1cc(OCc2ccccc2)ccc1Cl
130 to 132 | Nc1ccc(O)c(-c2cccs2)c1
106 to 107 | Cc1nn(-c2ccc(C(F)(F)F)cn2)cc1COc1ccc(OC(C)(C)C(=O)O)cc1
125 to 127 | NC(=O)C1CCc2ccccc2O1 (centres undefined)
238 | COc1ccccc1NC(=O)Nc1nc(NCCc2ccc(O)cc2)nc(Oc2ccc3ccccc3c2)n1
> 300 | N#Cc1[nH]n(C2CCCC2)c2nc(-c3ccncc3)nc(=O)c1-2
70 to 71 | CCOC(=O)CCc1oc(-n2ccnc2C)nc1-c1ccc(Cl)cc1
131 to 135 | COc1ccc(NC(N)=S)nc1
182 to 183 | CCOC(=O)Nc1cccc(Nc2c3cccc(C)c3nc3c(C(=O)NCCN(C)C)cccc23)c1C
130 | CC(=O)ON=C(N)c1cccc(C(=O)N2CCN(C(=O)[C@@H]3CCCN3S(=O)(=O)c3ccc(Cl)c(COc4cccc5c(C)cc(C)nc45)c3Cl)CC2)c1
63 to 66 | COc1cccc2c1OCN(CCc1ccccc1)C2
210 to 212 | Cc1cccc(/C=C/C2=CCN(Cc3c[nH]c4ncccc34)CC2)c1
82 to 85 | C(=CCON(Cc1ccccc1)Cc1ccccc1)CON(Cc1ccccc1)Cc1ccccc1
192 to 193 | COc1ccc2nc3ccc(OC)cc3c(C(=O)O)c2c1
192 | Nc1ccc2c(c1)C(c1ccccc1Cl)=CCC(=O)N2

melting point [°C] | Compound
34 to 36 | Cc1nc(-c2ccc(N)c(Br)c2)c[nH]1
247 to 248 | CC1(C)CCc2c(-c3ccoc3)nc3sc4c(NCc5cccnc5)ncnc4c3c2C1
> 324 | COc1cc2cc3c4c(cccc4c2cc1OC)C(=O)OC3=O
229 to 230 | O=C(CN1C(=O)C2(COc3cc4c(cc32)CCO4)c2c(-c3cncnc3)cccc21)Nc1ccccc1F (centres undefined)
265 to 266 | Cn1cc(C2=C(c3c4n(c5ccccc35)CC3CN(C(=O)OC(C)(C)C)CC3C4)C(=O)OC2=O)c2ccccc21 (centres undefined)
217 | O=C(Nc1ncc(C(F)(F)F)o1)C1c2ccccc2Oc2ccc(F)cc21 (racemic)
183 to 186 | O=S(=O)(Nc1cccc(Br)c1)c1cc(S(=O)(=O)Nc2cccc(Br)c2)c2ccccc2c1
207 to 208 | CNC(=O)Cc1c(-c2ccc(C)cc2)nn2cccnc12
280 to 282 | O=C(Nc1cccc(-c2ccnc3c(C(=O)c4cccs4)cnn23)c1)c1cnc[nH]1
220 | COc1cc(OC)c(-c2cc3ccccc3n2C)cc1C=CC(=O)c1ccc(S(=O)(=O)Nc2cc(C)on2)cc1
191 to 193 | Cc1cnc2c(C#N)cnn2c1-c1cccc(C(F)(F)F)c1
95 to 97 | CC(=NOCc1ccccc1-n1c(Cl)nn(C)c1=O)c1cccc(C(F)(F)F)c1
7.16 | CCCCCCCCOc1ccc(-c2ncc(Br)cn2)c(F)c1
160 | Nc1cc(OCC(O)CO)nc(N)n1 (centres undefined)
119 to 120 | CC(C)(C)C(F)(F)c1ccc(C[C@@H](NC(=O)c2cccc3c2C=CCCC3)[C@@H](O)c2cccc(Cl)c2)cc1 (racemic)

The next lines start with the compound.

Compound | melting point [°C]
N=c1sc2cc(OC(F)(F)F)ccc2n1CCS(=O)c1ncccn1 (centres undefined) | 120
Nc1ccc(-c2noc(-c3cnc4ccc(-c5ccc(Cl)cc5)cn34)n2)cn1 | 273
COc1ccc(C2=C(C#N)C(c3cccc4nonc34)c3c[nH]nc3N2)cc1 (centres undefined) | 244
COC(=O)COc1cccc2c1c(C(=O)C(N)=O)c(C)n2Cc1ccccc1 | 202 to 215
CCc1c(C(=O)NN2CCCCC2)nc(-c2ccccc2Cl)n1-c1ccc(Cl)cn1 | 217 to 219
CCCC(CCNC(=O)C(C#N)=Cc1cc(O)c(O)c(O)c1)NC(=O)C(C#N)=Cc1cc(O)c(O)c(O)c1 (centres undefined) | > 300
CC12CC(=O)C3C(CCC4CC(O)CCC43C)C1CCC2C(=O)CCOC(=O)CCl (centres undefined) | 95 to 97
COC(=O)N[C@@H](C(=O)O)c1ccccc1 | 122 to 125
CCOC(=O)c1ccc(N2CCOCC2)cc1 | 82 to 83
CCC(CC)c1nn(-c2ccc(Br)cn2)cc1CCCOc1c(CC(=O)O)cccc1OC | 94 to 95
COc1cccc(C2CCCCN(C)C2=O)c1 (centres undefined) | 73 to 74
CC(=O)NCc1nc(-c2ccc3c(c2)Nc2ccccc2S3)cs1 | 219 to 221
Oc1ccc2nc(CCl)oc2c1 | 148 to 154
CCOC(=O)CNC(=O)c1c(Cl)c2cc(Oc3ccc(C(F)(F)F)cc3)ccc2n1-c1ccc(OC(C)C)cc1 | 80 to 81
O=C(NS(=O)(=O)C=Cc1ccccc1)N1CCC(CCCc2ccccc2)CC1 | 125 to 127
CCCCCCCCCCOc1ccc(-c2ccccc2)cc1 | 70 to 73
COc1ncccc1Nc1c(NC(NC(=O)c2cccc(C)c2)C(C)(C)C)c(=O)c1=O (centres undefined) | 224 to 226
CSc1nnc(Cc2ccccc2S(N)(=O)=O)s1 | 175 to 178
Nc1nc(NC(CO)CO)c2ncn(C3C=CC(CO)C3)c2n1 (centres undefined) | 160 to 162
COc1ccc(-c2cc(=O)c3c(OC)cc(OC)c(C4=CCN(C)CC4)c3o2)cc1 | 179 to 181
CCC(C)(C)NC(Nc1ccc2c(c1)OCO2)=C(C#N)S(=O)(=O)c1ccc(Cl)cc1 | 169 to 170
Cc1[nH]c2ccc(C3=NNC(=O)NC3C)cc2c1C (centres undefined) | 292 to 296
N#CN=C(Nc1cccnc1)NC1CCCC1 | 155 to 156

Compound | melting point [°C]
CCN(CCOc1ccc(NC(=O)c2cccc3c(=O)c4ccccc4[nH]c23)cc1)Cc1ccccc1 | 157
O=C(O)CCCOc1ccc(C(=O)c2ccc(F)cc2)cc1 | 109 to 111
COc1ccc(C(c2ccc(OC)cc2)C2CN(C)CCC2=O)cc1 (centres undefined) | 104 to 106
CCOC(=O)c1cnn(-c2c(Cl)cc(C(F)(F)F)cc2Cl)c1C | 61 to 62
Cn1ncc(C(=O)N2CCOCC2)c1C(=O)Nc1ccn2nc(Br)nc2c1 | 198 to 214
O=[N+]([O-])c1ccc(Oc2ccccc2)nc1 | 84 to 86
CC(C)n1nc(C(=O)NCC2CCN(CC(=O)Nc3ccc(OCc4ccccc4)cc3)CC2)c2ccccc21 | 113 to 115
CCCc1nc2c(N)nc(C)c(C)c2n1CCCC(C)=NOC | 144 to 146
COc1cc(CCC2OC(=O)NC2=O)ccc1OCc1nc(-c2ccccc2)oc1C (centres undefined) | 194 to 195
CCCOc1ccc(S(=O)(=O)N2CCN(C)CC2)cc1-c1nc2cc3ncn(Cc4cccc(Cl)c4)c3cc2c(=O)[nH]1 | 198 to 200
Nc1ccc(C(=O)c2ccccc2)cc1F | 83 to 85
COc1c(C=Cc2ccc(C=CC3=C(C#N)C(=C(C#N)C#N)OC3(c3ccccc3)C(F)(F)F)s2)cc2c3c1CCCN3CCC2 (centres undefined) | 156 to 160
COc1ccc(Sc2ccc([N+](=O)[O-])cc2)c(Cl)c1Cl | 236 to 237
COc1c(OCC(F)(F)F)ccnc1CO | 107 to 108
Fc1ccc(Cl)cc1-c1nnn[nH]1 | 124
CCCN1CC(OCC2CC2)(C(F)(F)F)c2cc(Cl)ccc2NC1=O (centres undefined) | 156 to 158
CCCCC(=O)Oc1ccc(-c2nc(-c3ccc(Cl)cc3)c(CC(=O)O)s2)cc1 | 197 to 199
Nn1c(C2CCCCC2)nnc(-c2ccccc2)c1=O | 178 to 180
CC12CC(F)C3C4CCC(=O)C=C4CC(CCCCCBr)C3C1CCC2=O (centres undefined) | 75 to 76
CC(C)(C)SC1N(C(C(=O)OCc2ccc([N+](=O)[O-])cc2)C(=O)C(C)(C)C)C(=O)C1(C)C (centres undefined) | 87.5 to 90.5
COc1ccc(C(=O)c2coc3ccccc23)cc1 | 89 to 90
CCN(CC)Cc1c(Cl)ccc2cc(Cl)cnc12 | 54
Cc1ccc(C(N)=O)c(C)c1 | 184 to 186

Compound | melting point [°C]
CC(C)(C)C1=CC(=Cc2ccc([N+](=O)[O-])cc2)C=C(C(C)(C)C)C1=O | 162 to 163
CC(=O)OC1COC(N)C(OC(C)=O)C1OC(C)=O (centres undefined) | 148 to 149
COc1ccccc1Sc1c(NS(=O)(=O)c2ccc(C(C)(C)C)cc2)ncnc1OCCOC(=O)Nc1ccccn1 | 193
CC(=O)SCC(Cc1ccc(F)cc1)C(=O)Nc1cccc(C(=O)O)c1 (centres undefined) | 172 to 174
C#CCN1CC(=O)Oc2cc(F)c(NN)cc21 | 146
CCCCCCCCNP(N)(N)=O | 102 to 114
CCN(CC)CC(O)Cn1ccnc1[N+](=O)[O-] (centres undefined) | 92 to 93
CCCCCc1ccc(-c2ncc(-c3ccc(O)cc3)cn2)cc1 | 152 to 153
N=C(Nc1cc(NC(=O)/C=C/c2ccccc2C(F)(F)F)ccc1Cl)c1ccccc1 | 188 to 189
CC1(C)CC(O)c2cc(OCc3ccccc3)ccc2O1 (centres undefined) | 83 to 84
OC1(c2cccc(C(F)(F)F)c2)CCN(CCCC2(c3ccc(F)cc3F)OCCO2)CC1 | 90 to 93
CN(C)c1cnc(N)cn1 | 71.5 to 74.2
O=CNc1nc(SCc2ccccc2)nn1-c1ccccc1 | 94
CS(=O)(=O)c1ccc(/C(=C2\CCN(CCO)C2=O)c2ccc(Cl)cc2)cc1 | 187 to 188
CCn1nc(C(C)C)c2c1C(=O)NCC(c1ccc(O)cc1)=N2 | 230
O=C(NCC(c1ccccc1)c1ccccc1)N1CCC(=C(c2ccccc2)c2ccccc2)CC1 | 158 to 160
O=C1NCCNN1c1cc(Cl)c(Sc2ccc(Cl)cc2)c(Cl)c1 | 242 to 243
CCOC(=O)c1cc2c(nc(C)n2C)c2c1C(=O)CC1(Cc3ccccc3C1)N2 | 205 to 206
CSc1nnc(-c2nn(C)c(C)c2S(N)(=O)=O)o1 | 156 to 158
O=C(O)[C@H](CCc1ccccc1)NS(=O)(=O)c1ccc2c(c1)sc1ccccc12 | 210 to 212
CC(=O)SC(CC(=S)c1ccc(-c2ccccc2)cc1)C(=O)O (centres undefined) | 116 to 118
CC(=O)C(=NNc1cccc(C)c1)Sc1ccc(Cl)cc1 | 112 to 114

Reference: a melting point compilation (Tetko et al.; mined from patent text by program, amines drawn as free bases though some values may be those of a salt)
